What follows are molecules tested against T1, IKZF2 (Homo sapiens, UniProt Q96SW2+Q9UKS7) (assay: HiBiT protein tagging assay, in vitro IKZF2 degradation (HEK293)). Conditions: IKZF2-HiBiT reporter Flp-In T-REx HEK293 cells, doxycycline-induced, compound overnight (18-24 hr), normalized to DMSO control.
T1 construct: expressed in transfected cells
Format: cell-based
Protocol: In vitro degradation of IKZF1 and IKZF2 was measured using HiBiT protein tagging and detection technology (Promega).
HiBiT technology (Promega) was used to develop the quantitative assays to measure the cellular IKZFs level by tagging an 11 amino acid HiBit peptides VSGWRLFKKIS (SEQ ID NO:1) to the protein of interest. Reporter plasmids were generated by fusing a linker sequence (GSSGGSSG; SEQ ID NO:2) followed by the HiBiT tag at the C terminus of IKZF1 and IKZF2. The fusion fragments were subsequently cloned into pcDNA5 pcDNA™5/FRT/TO plasmids (Thermo Fisher, cat #V652020) downstream of the Tetracycline operator. The resulting plasmids were co-transfected with pOG44 Flp-Recombinase Expression Vector (Thermo Fisher, cat #V600520) into Flp-In™ T-REx HEK293 line (Thermo Fisher, cat #R78077) and a stable cell pool was selected by adding 100 μg/ml of Hygromycin (Thermo Fisher, cat #10687010). The reporter cell enabled Tet-On inducible reporter expression from a single copy of the integrated gene.
On Day 1, Cells were grown to ˜80% confluency in TC medium (DMEM Glutamax (Gibco10569), 10% Tet free FBS (Takara 631106), and PenStrep Glutamin (Gibco 10378)) in tissue culture flasks. Doxycycline was then added to a final concentration of 1 μg/ml to induce reporter expression at 37° C. overnight.
On Day 2, 125 nL of serially-diluted solution of testing compounds were dispensed into 384-well white solid assay plates via ECHO acoustic liquid handler. Cells were lifted by 0.25% Trypsin (Gibco 25200) then pelleted by centrifugation (Beckman Avanti J-E) at 500×g for 5 min. Cell pellets were resuspended in TC medium at the concentration of 3e5/mL and 25 μL of cell suspension were added into each well of compound-spotted plates. The plates were returned to a 37° C. incubator overnight (18-24 hr).
On Day 3, assay plates were removed from the TC incubator and 25 μL of Nano-Glo lytic detection system (Promega, cat #N3030) was added to each well. Plates were incubated at r.t. for 3 min with shaking, and luminescence was read using an Envision reader (Perkin Elmer).
All raw data was normalized to DMSO control (final concentration: 0.5%) wells as POC and plotted out for EC50 and Dmax (Maximum degradation at the highest concentration tested in the assay).

T1 sequence (Q9UKS7 1-500 isoform Q9UKS7-2): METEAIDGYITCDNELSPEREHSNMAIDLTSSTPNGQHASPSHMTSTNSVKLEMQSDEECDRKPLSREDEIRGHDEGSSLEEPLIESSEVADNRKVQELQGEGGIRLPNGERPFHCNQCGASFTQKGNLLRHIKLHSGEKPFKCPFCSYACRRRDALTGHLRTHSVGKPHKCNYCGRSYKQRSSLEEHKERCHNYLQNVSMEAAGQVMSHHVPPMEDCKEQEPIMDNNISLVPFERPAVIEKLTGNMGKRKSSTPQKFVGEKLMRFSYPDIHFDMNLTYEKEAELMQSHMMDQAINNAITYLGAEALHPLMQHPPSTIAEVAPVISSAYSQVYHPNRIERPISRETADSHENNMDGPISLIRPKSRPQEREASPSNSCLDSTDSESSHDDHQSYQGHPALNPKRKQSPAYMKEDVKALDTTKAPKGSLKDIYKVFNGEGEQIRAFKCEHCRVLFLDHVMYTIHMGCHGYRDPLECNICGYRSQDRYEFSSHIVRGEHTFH
T1 sequence (Q96SW2 whole entry): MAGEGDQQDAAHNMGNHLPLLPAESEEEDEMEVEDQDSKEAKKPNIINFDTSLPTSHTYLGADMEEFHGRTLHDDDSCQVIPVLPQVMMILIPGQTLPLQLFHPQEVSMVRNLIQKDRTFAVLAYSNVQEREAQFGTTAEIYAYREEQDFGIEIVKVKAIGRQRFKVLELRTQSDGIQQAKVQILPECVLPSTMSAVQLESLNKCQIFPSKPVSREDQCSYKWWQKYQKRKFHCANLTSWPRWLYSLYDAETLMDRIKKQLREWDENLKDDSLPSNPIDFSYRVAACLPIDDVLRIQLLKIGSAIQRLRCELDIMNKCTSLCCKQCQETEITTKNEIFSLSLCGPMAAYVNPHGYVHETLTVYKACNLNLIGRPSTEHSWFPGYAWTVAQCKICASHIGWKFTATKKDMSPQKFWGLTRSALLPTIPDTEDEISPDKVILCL
T1 sequence (Q16531 whole entry partner): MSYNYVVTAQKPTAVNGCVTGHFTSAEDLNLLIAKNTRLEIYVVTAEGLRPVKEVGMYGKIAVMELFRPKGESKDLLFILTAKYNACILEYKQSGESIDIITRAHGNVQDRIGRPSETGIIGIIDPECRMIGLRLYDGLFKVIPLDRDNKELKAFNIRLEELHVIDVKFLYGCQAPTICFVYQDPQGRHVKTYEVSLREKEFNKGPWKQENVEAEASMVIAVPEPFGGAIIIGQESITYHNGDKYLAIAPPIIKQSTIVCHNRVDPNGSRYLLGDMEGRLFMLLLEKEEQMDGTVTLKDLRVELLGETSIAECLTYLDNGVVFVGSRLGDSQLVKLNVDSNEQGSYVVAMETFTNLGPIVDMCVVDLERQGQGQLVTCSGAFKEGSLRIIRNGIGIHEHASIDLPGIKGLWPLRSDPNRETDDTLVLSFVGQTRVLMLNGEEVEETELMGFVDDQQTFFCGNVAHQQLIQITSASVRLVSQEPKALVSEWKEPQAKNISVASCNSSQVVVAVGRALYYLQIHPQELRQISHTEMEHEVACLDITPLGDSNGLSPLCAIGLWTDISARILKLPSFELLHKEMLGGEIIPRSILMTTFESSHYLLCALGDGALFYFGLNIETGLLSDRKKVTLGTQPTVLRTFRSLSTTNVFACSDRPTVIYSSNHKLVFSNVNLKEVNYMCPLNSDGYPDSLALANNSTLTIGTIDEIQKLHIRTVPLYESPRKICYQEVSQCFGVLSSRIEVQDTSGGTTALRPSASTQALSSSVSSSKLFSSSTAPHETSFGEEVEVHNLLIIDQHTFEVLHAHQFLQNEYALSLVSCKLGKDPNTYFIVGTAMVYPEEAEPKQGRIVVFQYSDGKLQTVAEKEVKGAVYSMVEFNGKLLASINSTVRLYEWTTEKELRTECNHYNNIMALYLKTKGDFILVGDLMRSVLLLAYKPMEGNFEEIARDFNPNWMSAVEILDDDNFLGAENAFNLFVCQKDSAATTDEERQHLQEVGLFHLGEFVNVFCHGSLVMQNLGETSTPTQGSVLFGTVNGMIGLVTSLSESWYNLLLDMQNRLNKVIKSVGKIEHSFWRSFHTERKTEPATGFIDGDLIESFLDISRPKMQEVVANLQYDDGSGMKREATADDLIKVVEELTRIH

Going from `O=C1CCC(N2Cc3cc(O[C@@H]4CN(Cc5ccccc5)CC[C@H]4NCC(F)(F)F)ccc3C2=O)C(=O)N1` (relative stereo) [Example 45, 3-(5-(((3,4-trans)-1-benzyl-4-((2,2,2-trifluoroethyl)amino)piperidin-3-yl)oxy)-1-oxoisoindolin-2-yl)piperidine-2,6-dione] to `O=C1CCC(N2Cc3cc(O[C@@H]4CN(Cc5ccccc5)CC[C@H]4NC(=O)NCc4ccccc4)ccc3C2=O)C(=O)N1` (relative stereo) [Example 55, 1-benzyl-3-((3,4-trans)-1-benzyl-3-((2-(2,6-dioxopiperidin-3-yl)-1-oxoisoindolin-5-yl)oxy)piperidin-4-yl)urea], the “IKZF2 Dmax (maximum degradation at the highest concentration tested)” value rises from 44% to 91%.

In the case of `O=C1CCC(N2Cc3cc(O[C@@H]4CN(Cc5ccccc5)CC[C@H]4N4CC(Oc5ccccc5Cl)C4)ccc3C2=O)C(=O)N1` (relative stereo) [Example 54, 3-(5-(((3,4-trans)-1-benzyl-4-(3-(2-chlorophenoxy)azetidin-1-yl)piperidin-3-yl)oxy)-1-oxoisoindolin-2-yl)piperidine-2,6-dione], the “IKZF2 Dmax (maximum degradation at the highest concentration tested)” value is reported as 94%.

Same assay, conditions: IKZF2-HiBiT reporter Flp-In T-REx HEK293 cells, doxycycline-induced, compound overnight (18-24 hr), normalized to DMSO control; read-out: IKZF2 Dmax (maximum degradation at the highest concentration tested)

Going from `O=C1CCC(N2Cc3cc(O[C@@H]4CN(CC(F)(F)F)CC[C@H]4NCc4ccccc4)ccc3C2=O)C(=O)N1` (relative stereo) [Example 40, 3-(5-((trans-4-(benzylamino)-1-(2,2,2-trifluoroethyl)piperidin-3-yl)oxy)-1-oxoisoindolin-2-yl)piperidine-2,6-dione] to `O=C1CCC(N2Cc3cc(OC4CN(CC(F)F)CCC4NCc4ccccc4)ccc3C2=O)C(=O)N1` (stereo not drawn) [Example 49, 3-(5-(((3,4-trans)-4-(benzylamino)-1-(2,2-difluoroethyl)piperidin-3-yl)oxy)-1-oxoisoindolin-2-yl)piperidine-2,6-dione], the Dmax rises from 57% to 69%.

Going from `N[C@@H]1CCN(Cc2ccccc2)C[C@H]1Oc1ccc2c(c1)CN(C1CCC(=O)NC1=O)C2=O` (relative stereo) [Example 42, 3-(5-((trans-4-amino-1-benzylpiperidin-3-yl)oxy)-1-oxoisoindolin-2-yl)piperidine-2,6-dione] to `N[C@H]1CCN(Cc2ccccc2)C[C@@H]1Oc1ccc2c(c1)CN(C1CCC(=O)NC1=O)C2=O` (stereo partly shown) [Example 42a], the Dmax rises from 96% to 98%.

Compared with `O=C1CCC(N2Cc3cc(O[C@H]4CN(Cc5ccccc5)CC[C@@H]4NCc4ccccc4)ccc3C2=O)C(=O)N1` (stereo partly shown) [Example 2a], `O=C1CCC(N2Cc3cc(OC4CN(Cc5ccccc5)CCC4Nc4ccccc4)ccc3C2=O)C(=O)N1` (stereo not drawn) [Example 43, 3-(5-(((3,4-trans)-1-benzyl-4-(phenylamino)piperidin-3-yl)oxy)-1-oxoisoindolin-2-yl)piperidine-2,6-dione] is lower in Dmax: 97% for the first, 48% for the second.

First: O=C1CCC(N2Cc3cc(O[C@H]4CN(c5ccccc5)C[C@@H]4NCc4ccccc4)ccc3C2=O)C(=O)N1 (stereo partly drawn) [Example 39, 3-(5-(((3S,4S)-4-(benzylamino)-1-phenylpyrrolidin-3-yl)oxy)-1-oxoisoindolin-2-yl)piperidine-2,6-dione]
Second: O=C1CCC(N2Cc3cc(OC4CN(Cc5ccccc5)CCC4NC(=O)c4ccccc4)ccc3C2=O)C(=O)N1 (stereo not drawn) [Example 44, N-((3,4-trans)-1-benzyl-3-((2-(2,6-dioxopiperidin-3-yl)-1-oxoisoindolin-5-yl)oxy)piperidin-4-yl)benzamide]
The Dmax of the first is lower: 39% for the first, 79% for the second.

First: CS(=O)(=O)NC1CCN(Cc2ccccc2)CC1Oc1ccc2c(c1)CN(C1CCC(=O)NC1=O)C2=O (stereo not drawn) [Example 47, N-((3,4-trans)-1-benzyl-3-((2-(2,6-dioxopiperidin-3-yl)-1-oxoisoindolin-5-yl)oxy)piperidin-4-yl)methanesulfonamide]
Second: CC(=O)NC1CCN(Cc2ccccc2)CC1Oc1ccc2c(c1)CN(C1CCC(=O)NC1=O)C2=O (stereo not drawn) [Example 48, N-((3,4-trans)-1-benzyl-3-((2-(2,6-dioxopiperidin-3-yl)-1-oxoisoindolin-5-yl)oxy)piperidin-4-yl)acetamide]
The Dmax of the first is lower: 62% for the first, 69% for the second.

Going from `CC(C)N[C@H]1CCN(Cc2nccs2)C[C@@H]1Oc1ccc2c(c1)CN(C1CCC(=O)NC1=O)C2=O` (stereo partly shown) [Example 62] to `CC(C)N[C@H]1CCN(Cc2ncco2)C[C@@H]1Oc1ccc2c(c1)CN(C1CCC(=O)NC1=O)C2=O` (stereo partly shown) [Example 67], the Dmax falls from 103% to 64%.

Compared with `CCN[C@H]1CCN(Cc2ccc(F)cc2)C[C@@H]1Oc1ccc2c(c1)CN(C1CCC(=O)NC1=O)C2=O` (stereo partly shown) [Example 64], `CCN(CC)[C@H]1CCN(Cc2ccc(F)cc2)C[C@@H]1Oc1ccc2c(c1)CN(C1CCC(=O)NC1=O)C2=O` (stereo partly shown) [Example 65] is higher in Dmax: 98% for the first, 99% for the second.

Going from `CC(C)N[C@H]1CCN(Cc2ccn(C)n2)C[C@@H]1Oc1ccc2c(c1)CN(C1CCC(=O)NC1=O)C2=O` (stereo partly shown) [Example 66] to `CC(C)N[C@H]1CCN(Cc2cnccn2)C[C@@H]1Oc1ccc2c(c1)CN(C1CCC(=O)NC1=O)C2=O` (stereo partly shown) [Example 68], the Dmax rises from 34% to 74%.
